IC50 and Ki data for 35 compounds are collected here from ChEMBL document CHEMBL1134159, “Sulfonylated aminothiazoles as new small molecule inhibitors of protein phosphatases” (Bioorg Med Chem Lett, 2001).

The IC50 is the concentration that gives 50% inhibition. One may read the Ki as the equilibrium dissociation constant of an inhibitor or competing ligand from its target.

Experiment [1] addresses T1, Tyrosine-protein phosphatase non-receptor type 1 (Homo sapiens, UniProt P18031).
T1 sequence (P18031 whole entry): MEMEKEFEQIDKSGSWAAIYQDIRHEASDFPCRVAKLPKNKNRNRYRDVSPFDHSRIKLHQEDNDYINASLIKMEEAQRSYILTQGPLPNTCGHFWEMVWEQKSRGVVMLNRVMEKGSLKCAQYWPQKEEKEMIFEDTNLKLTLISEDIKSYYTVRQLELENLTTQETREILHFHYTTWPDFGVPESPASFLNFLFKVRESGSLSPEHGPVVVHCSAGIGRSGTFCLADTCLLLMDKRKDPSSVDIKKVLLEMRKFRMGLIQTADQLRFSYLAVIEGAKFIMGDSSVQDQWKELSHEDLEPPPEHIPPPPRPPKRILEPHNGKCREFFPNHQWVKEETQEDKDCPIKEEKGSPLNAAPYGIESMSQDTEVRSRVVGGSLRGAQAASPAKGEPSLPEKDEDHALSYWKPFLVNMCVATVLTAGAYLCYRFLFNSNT
In words: In vitro inhibitory activity against human recombinant PTP1B phosphatase enzyme.

Experiment [2] concerns the target T2, Dual specificity protein phosphatase 3 (Homo sapiens, UniProt P51452). In words: In vitro inhibitory activity against human recombinant VHR phosphatase enzyme.
Experiment [3] has as its target T3, M-phase inducer phosphatase 2 (Homo sapiens, UniProt P30305).
T3 sequence (P30305 whole entry): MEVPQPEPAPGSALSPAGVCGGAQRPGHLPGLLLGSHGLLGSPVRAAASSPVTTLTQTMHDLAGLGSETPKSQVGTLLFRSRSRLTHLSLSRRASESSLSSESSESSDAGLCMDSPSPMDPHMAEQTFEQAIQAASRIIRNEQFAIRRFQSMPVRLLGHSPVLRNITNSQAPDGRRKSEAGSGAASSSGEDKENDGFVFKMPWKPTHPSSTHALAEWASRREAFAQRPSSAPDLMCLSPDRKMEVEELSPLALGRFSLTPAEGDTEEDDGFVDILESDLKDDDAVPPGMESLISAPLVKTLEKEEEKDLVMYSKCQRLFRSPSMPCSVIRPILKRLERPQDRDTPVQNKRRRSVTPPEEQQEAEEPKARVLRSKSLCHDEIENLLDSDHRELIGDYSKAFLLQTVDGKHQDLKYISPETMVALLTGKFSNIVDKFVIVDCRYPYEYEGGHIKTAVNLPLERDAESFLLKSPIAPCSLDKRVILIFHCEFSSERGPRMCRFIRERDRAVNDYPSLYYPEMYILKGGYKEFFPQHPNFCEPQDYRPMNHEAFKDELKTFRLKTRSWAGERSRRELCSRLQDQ
In words: In vitro inhibitory activity against human recombinant Cdc25B phosphatase enzyme.

For experiment [4], the target named is T3, M-phase inducer phosphatase 2. In words: Inhibitory activity against human recombinant Cdc25B phosphatase enzyme.
Experiment [5] has the same target. In words: In vitro inhibitory activity against human recombinant Cell division cycle 25B.
In experiment [6] the target is T2, Dual specificity protein phosphatase 3. In words: In vitro inhibitory activity against human recombinant Dual specificity protein phosphatase 3 enzyme.
For experiment [7], the target named is T1, Tyrosine-protein phosphatase non-receptor type 1. In words: In vitro inhibitory activity against human recombinant Protein-tyrosine phosphatase 1B.

T2 sequence (P51452 whole entry): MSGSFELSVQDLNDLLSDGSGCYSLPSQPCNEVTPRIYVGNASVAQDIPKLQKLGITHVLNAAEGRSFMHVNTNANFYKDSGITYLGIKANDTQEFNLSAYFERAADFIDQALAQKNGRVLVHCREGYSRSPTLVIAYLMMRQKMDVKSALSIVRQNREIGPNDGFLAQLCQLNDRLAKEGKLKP

`CCCc1sc(NS(=O)(=O)/C=C/c2ccccc2Cl)nc1-c1ccc(Cl)cc1`: the figures for the IC50 in experiment [1], in experiment [2] and in experiment [3] were 24 µM, 32 µM and 26 µM, respectively. Also, the Ki in experiment [4] was found to be 4.6 µM.

In the case of `CCCCc1ccc(/C=C/S(=O)(=O)Nc2nc(-c3ccc(-c4ccccc4)cc3)c(CCC)s2)cc1`, the IC50 is above 100 µM in experiment [1], 54 µM in experiment [2] and 80 µM in experiment [3].

On to `N#Cc1ccc(/C=C/S(=O)(=O)Nc2nc(-c3ccccc3)c(-c3ccccc3)s2)cc1`, for which the IC50 in experiment [1] amounted to 58 µM; in experiment [2], 32 µM; in experiment [3] it was 76 µM.

Regarding `CCc1sc(NS(=O)(=O)/C=C/c2ccc([N+](=O)[O-])cc2)nc1-c1ccccc1`, the IC50 in experiment [1] is 83 µM; in experiment [2] it was 50 µM; in experiment [3] it was 88 µM.

As to `CCCCCCCCC/C=C/S(=O)(=O)Nc1nc(-c2ccccc2)c(-c2ccccc2)s1`, the values for the half-maximal inhibitory concentration (IC50) in experiment [1], in experiment [2] and in experiment [3] were 49 µM, 24 µM and 33 µM, respectively.

In the case of `O=[N+]([O-])c1ccc(/C=C/S(=O)(=O)Nc2nc(-c3ccccc3)c(-c3ccccc3)s2)cc1`, the IC50 was determined as 58 µM in experiment [1], 47 µM in experiment [2] and 54 µM in experiment [3].

Turning to `Cc1sc(NS(=O)(=O)/C=C/c2ccccc2Cl)nc1-c1ccc(Cl)cc1`, the half-inhibitory concentration (IC50) in experiment [1], in experiment [2] and in experiment [3] was above 100 µM each time.

For `CCCc1sc(NS(=O)(=O)/C=C/c2ccc3ccccc3c2)nc1-c1ccc2ccccc2c1`, the 50% inhibitory concentration (IC50) in experiment [1] amounted to 98 µM; in experiment [2], 34 µM; in experiment [3], 69 µM.

For the compound `CCc1sc(NS(=O)(=O)/C=C/c2ccc3ccccc3c2)nc1-c1ccccc1`, the IC50 was above 100 µM in experiment [1], 32 µM in experiment [2] and 89 µM in experiment [3].

As for `O=S(=O)(/C=C/c1ccc(C(F)(F)F)cc1)Nc1nc(-c2ccccc2)c(-c2ccccc2)s1`, the results for the IC50 in experiment [1], in experiment [2] and in experiment [3] were 36 µM, 25 µM and 34 µM, respectively.

Turning to `CCCCc1ccc(/C=C/S(=O)(=O)Nc2nc(-c3ccccc3)c(-c3ccccc3)s2)cc1`, the IC50 in experiment [1] was above 100 µM; in experiment [2] it was 39 µM; in experiment [3], 58 µM.

On to `CCCc1sc(NS(=O)(=O)/C=C/c2ccc3ccccc3c2)nc1-c1ccc(-c2ccccc2)cc1`, for which the IC50 in experiment [1] is above 100 µM; in experiment [2] it was 57 µM; in experiment [3] it was above 100 µM.

`Cc1ccc(/C=C/S(=O)(=O)Nc2nc(-c3ccccc3)c(-c3ccccc3)s2)cc1`: the half-maximal inhibitory concentration (IC50) in experiment [1], in experiment [2] and in experiment [3] was above 100 µM in each case.

Turning to `CCCc1sc(NS(=O)(=O)/C=C/c2ccc(C)cc2)nc1-c1ccc(Cl)cc1`, the IC50 worked out at 32 µM in experiment [1], 48 µM in experiment [2] and 34 µM in experiment [3].

As to `CCCc1sc(NS(=O)(=O)/C=C/c2ccc(C(F)(F)F)cc2)nc1-c1ccc(-c2ccccc2)cc1`, the IC50 in experiment [1] is above 100 µM; in experiment [2], 42 µM; in experiment [3] it was 92 µM.

Take `CCc1sc(NS(=O)(=O)/C=C/c2ccccc2Cl)nc1-c1ccccc1`: the IC50 in experiment [1], in experiment [2] and in experiment [3] was above 100 µM throughout.

For the compound `O=S(=O)(/C=C/c1ccccc1Cl)Nc1nc(-c2ccccc2)c(-c2ccccc2)s1`, the IC50 in experiment [1] is 38 µM; in experiment [2] it was 40 µM; in experiment [3], 26 µM.

As for `O=S(=O)(/C=C/c1ccc2ccccc2c1)Nc1nc(-c2ccccc2)c(-c2ccccc2)s1`, the concentration for half-maximal inhibition (IC50) came out at 45 µM in experiment [1], 30 µM in experiment [2] and 22 µM in experiment [3]. Further, the Ki in experiment [4] was found to be 36 µM.

For the compound `O=S(=O)(/C=C/c1ccco1)Nc1nc(-c2ccccc2)c(-c2ccccc2)s1`, the IC50 in experiment [1], in experiment [2] and in experiment [3] was above 100 µM each time.

For the compound `CCCc1sc(NS(=O)(=O)/C=C/c2ccccc2Cl)nc1-c1ccc(-c2ccccc2)cc1`, the IC50 in experiment [1] was above 100 µM; in experiment [2], 82 µM; in experiment [3], above 100 µM.

As to `CCc1sc(NS(=O)(=O)/C=C/c2ccc(S(C)(=O)=O)cc2)nc1-c1ccccc1`, the IC50 in experiment [1], in experiment [2] and in experiment [3] was above 100 µM each time.

In the case of `CCCc1sc(NS(=O)(=O)/C=C/c2ccccc2Cl)nc1-c1ccc(C(F)(F)F)cc1`, the 50% inhibitory concentration (IC50) in experiment [1] turned out to be 10 µM; in experiment [2], 25 µM; in experiment [3], 14 µM.

In the case of `COC(=O)c1ccc(/C=C/S(=O)(=O)Nc2nc(-c3ccccc3)c(-c3ccccc3)s2)cc1`, the IC50 is 59 µM in experiment [1], 20 µM in experiment [2] and 26 µM in experiment [3].

For `COc1ccc(/C=C/S(=O)(=O)Nc2nc(-c3ccccc3)c(-c3ccccc3)s2)cc1OC`, the IC50 in experiment [1], in experiment [2] and in experiment [3] was above 100 µM in each case.

As to `CCCc1sc(NS(=O)(=O)/C=C/c2ccc(F)c(F)c2)nc1-c1ccc(Cl)cc1`, the IC50 worked out at 20 µM in experiment [1], 20 µM in experiment [2] and 21 µM in experiment [3].

For the compound `CCCCCCCCCCc1sc(NS(=O)(=O)/C=C/c2ccccc2Cl)nc1-c1ccccc1`, the IC50 in experiment [1], in experiment [2] and in experiment [3] was above 100 µM each time.

Turning to `CCCc1sc(NS(=O)(=O)/C=C/c2ccc(F)c(F)c2)nc1-c1ccc(-c2ccccc2)cc1`, the IC50 in experiment [5] was 40 µM; in experiment [6], 22 µM; in experiment [7] it was 77 µM.

Regarding `O=S(=O)(/C=C/c1ccc(F)c(F)c1)Nc1nc(-c2ccccc2)c(-c2ccccc2)s1`, the figures for the IC50 in experiment [1], in experiment [2] and in experiment [3] were 85 µM, 33 µM and 72 µM, respectively.

As to `CCCc1sc(NS(=O)(=O)/C=C/c2ccc(C)cc2)nc1-c1ccc(-c2ccccc2)cc1`, the IC50 worked out at 58 µM in experiment [1], 21 µM in experiment [2] and 46 µM in experiment [3].

As for `O=S(=O)(/C=C/c1ccccc1Cl)Nc1nc(-c2ccc(Cl)cc2)cs1`, the IC50 in experiment [1] was above 100 µM; in experiment [2], above 100 µM; in experiment [3] it was 89 µM.

On to `CCCc1sc(NS(=O)(=O)/C=C/c2ccc(F)c(F)c2)nc1-c1ccc(C(F)(F)F)cc1`, for which the IC50 is 29 µM in experiment [1], 31 µM in experiment [2] and 25 µM in experiment [3].

Take `Cc1sc(NS(=O)(=O)/C=C/c2ccc(F)c(F)c2)nc1-c1ccc(Cl)cc1`: the values for the IC50 in experiment [1], in experiment [2] and in experiment [3] were 51 µM, 43 µM and 33 µM, respectively.

Take `CCCc1sc(NS(=O)(=O)/C=C/c2ccc(-c3ccccc3)cc2)nc1-c1ccc(Cl)cc1`: the IC50 is 35 µM in experiment [1], 27 µM in experiment [2] and 38 µM in experiment [3].

For `O=S(=O)(/C=C/c1ccc(-c2ccccc2)cc1)Nc1nc(-c2ccccc2)c(-c2ccccc2)s1`, the values for the 50% inhibitory concentration (IC50) in experiment [1], in experiment [2] and in experiment [3] were 90 µM, 34 µM and 70 µM, respectively.

Turning to `CCCc1sc(NS(=O)(=O)/C=C/c2ccc(C)cc2)nc1-c1ccc(C(F)(F)F)cc1`, the IC50 worked out at 20 µM in experiment [1], 31 µM in experiment [2] and 20 µM in experiment [3].
